The values below come from patent US6825172B2, “3-descladinosyl-6-O-carbamoyl and 6-O-carbonoyl macrolide antibacterial agents” (Janssen Pharmaceutica, NV, priority 2002, dated 2004).

Holding throughout (test): MIC, microdilution broth method (NCCLS)
Holding throughout (format): cell-based
A general note: In broth dilution the organism is exposed to a series of concentrations in liquid medium.

For assay [1], the system named is E. coli OC2605. Particulars: Escherichia coli. The essentials:
(§1)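 NCCLS M7-A4 broth microdilution: two-fold drug dilutions in cation-adjusted Mueller-Hinton broth, inoculum approximately 5×10^4 CFU/well. Trays incubated at 35 °C for 16-20 hours. MIC read by comparing growth to compound-free growth controls.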

Assay [2] deals with E. faecalis ATCC29212. As to conditions: Enterococcus faecalis, read-out: MIC Values, C: E. faecalis ATCC29212. The essentials: as §1
In assay [3] the test system is H. influenzae ATCC49247. As to conditions: Haemophilus influenzae, read-out: MIC Values, E: H. influenzae ATCC49247. A digest of the protocol:
as §1

Assay [4] relates to S. aureus ATCC29213. Particulars: Staphylococcus aureus, read-out: MIC Values, B: S. aureus ATCC29213. The essentials: as §1
The subject of assay [5] is S. pneumoniae ATCC49619. As to conditions: Streptococcus pneumoniae, read-out: MIC Values, D: S. pneumoniae ATCC49619. The essentials:
as §1

[6] abbreviates: Table 1, 6-Carbamoyl-3-Acyl Macrolide Derivatives, read-out: MIC Values, A: E. coli OC2605.
The mark [7] stands for this setting: Table 1, 6-Carbamoyl-3-Acyl Macrolide Derivatives.
The mark [8] stands for this setting: Table 2, 3,6-Dicarbamoyl Macrolide Derivatives, read-out: MIC Values, A: E. coil OC2605.
[9] abbreviates: Table 2, 3,6-Dicarbamoyl Macrolide Derivatives.

Values after ≈ are worked out from the molar mass of the structure shown. Read-outs that look alike come from different tables or passages of the source.

Turning to `CC[C@H]1OC(=O)[C@H](C)[C@@H](OC(=O)c2cccnc2)[C@H](C)[C@@H](O[C@@H]2O[C@H](C)C[C@H](N(C)C)[C@H]2O)[C@](C)(OC(=O)NC/C=C/c2ccc(-c3ncccn3)cc2)C[C@@H](C)C(=O)[C@H](C)[C@H]2NC(=O)O[C@@]21C` [Compound 7], the MIC in assay [1] (setting [6]) was over 16 µg/mL; in assay [2] (setting [7]), 0.5 µg/mL (≈ 0.53 µM); in assay [3] (setting [7]), 8 µg/mL (≈ 8.48 µM); in assay [4] (setting [7]), 1 µg/mL (≈ 1.06 µM); in assay [5] (setting [7]) it was 0.06 µg/mL (≈ 0.0636 µM).
Taken in the same sequence, the figures for `CC[C@H]1OC(=O)[C@H](C)[C@@H](OC(=O)Cc2ccccn2)[C@H](C)[C@@H](O[C@@H]2O[C@H](C)C[C@H](N(C)C)[C@H]2O)[C@](C)(OC(=O)NC/C=C/c2cnc3ccccc3c2)C[C@@H](C)C(=O)[C@H](C)[C@H]2NC(=O)O[C@@]21C` [Compound 32] were 8 µg/mL (≈ 8.6 µM), 0.25 µg/mL (≈ 0.269 µM), 2 µg/mL (≈ 2.15 µM), 0.5 µg/mL (≈ 0.538 µM) and 0.03 µg/mL (≈ 0.0323 µM).
For `CC[C@H]1OC(=O)[C@H](C)[C@@H](OC(=O)c2ccc([N+](=O)[O-])cc2)[C@H](C)[C@@H](O[C@@H]2O[C@H](C)C[C@H](N(C)C)[C@H]2O)[C@](C)(OC(=O)NC/C=C/c2ccc(-c3ncccn3)cc2)C[C@@H](C)C(=O)[C@H](C)[C@H]2NC(=O)O[C@@]21C` [Compound 10] the same measures were over 16 µg/mL, 1 µg/mL (≈ 1.01 µM), 8 µg/mL (≈ 8.1 µM), 2 µg/mL (≈ 2.03 µM) and 0.12 µg/mL (≈ 0.122 µM).
For `CC[C@H](C)C(=O)O[C@H]1[C@H](C)[C@@H](O[C@@H]2O[C@H](C)C[C@H](N(C)C)[C@H]2O)[C@](C)(OC(=O)NC/C=C/c2ccc(-c3ncccn3)cc2)C[C@@H](C)C(=O)[C@H](C)[C@H]2NC(=O)O[C@]2(C)[C@@H](CC)OC(=O)[C@@H]1C` [Compound 15] the same measures were over 16 µg/mL, 0.5 µg/mL (≈ 0.542 µM), 4 µg/mL (≈ 4.34 µM), 0.5 µg/mL (≈ 0.542 µM) and 0.06 µg/mL (≈ 0.0651 µM).
In the case of `CCC(=O)O[C@H]1[C@H](C)[C@@H](O[C@@H]2O[C@H](C)C[C@H](N(C)C)[C@H]2O)[C@](C)(OC(=O)NC/C=C/c2ccc(-c3ncccn3)cc2)C[C@@H](C)C(=O)[C@H](C)[C@H]2NC(=O)O[C@]2(C)[C@@H](CC)OC(=O)[C@@H]1C` [Compound 14], the MIC stood at 16 µg/mL (≈ 17.9 µM) in assay [1] (setting [6]); 0.25 µg/mL (≈ 0.28 µM) in assay [2] (setting [7]); 4 µg/mL (≈ 4.47 µM) in assay [3] (setting [7]); 0.25 µg/mL (≈ 0.28 µM) in assay [4] (setting [7]); 0.06 µg/mL (≈ 0.0671 µM) in assay [5] (setting [7]).
Regarding `CC[C@H]1OC(=O)[C@H](C)[C@@H](OC(=O)C(C)C)[C@H](C)[C@@H](O[C@@H]2O[C@H](C)C[C@H](N(C)C)[C@H]2O)[C@](C)(OC(=O)NC/C=C/C=C/c2ccccn2)C[C@@H](C)C(=O)[C@H](C)[C@H]2NC(=O)O[C@@]21C` [Compound 26], the MIC in assay [1] (setting [6]) worked out at 16 µg/mL (≈ 18.7 µM); in assay [2] (setting [7]), 0.25 µg/mL (≈ 0.292 µM); in assay [3] (setting [7]), 2 µg/mL (≈ 2.33 µM); in assay [4] (setting [7]), 1 µg/mL (≈ 1.17 µM); in assay [5] (setting [7]), 0.06 µg/mL (≈ 0.07 µM).
As to `CC[C@H]1OC(=O)[C@H](C)[C@@H](OC(=O)Cc2cccnc2)[C@H](C)[C@@H](O[C@@H]2O[C@H](C)C[C@H](N(C)C)[C@H]2O)[C@](C)(OC(=O)NC/C=C/c2cnc3ccccc3c2)C[C@@H](C)C(=O)[C@H](C)[C@H]2NC(=O)O[C@@]21C` [Compound 30], the MIC in assay [1] (setting [6]) is 16 µg/mL (≈ 17.2 µM); in assay [2] (setting [7]) it was 0.5 µg/mL (≈ 0.538 µM); in assay [3] (setting [7]) it was 4 µg/mL (≈ 4.3 µM); in assay [4] (setting [7]), 1 µg/mL (≈ 1.08 µM); in assay [5] (setting [7]) it was 0.03 µg/mL (≈ 0.0323 µM).
In the case of `CC[C@H]1OC(=O)[C@H](C)[C@@H](OC(=O)N(CC)CC)[C@H](C)[C@@H](O[C@@H]2O[C@H](C)C[C@H](N(C)C)[C@H]2O)[C@](C)(OC(=O)NC/C=C/c2ccc(-c3ncccn3)cc2)C[C@@H](C)C(=O)[C@H](C)[C@H]2NC(=O)O[C@@]21C` [Compound 56], the MIC in assay [1] (setting [8]) is 16 µg/mL (≈ 17.1 µM); in assay [2] (setting [9]), 0.5 µg/mL (≈ 0.534 µM); in assay [3] (setting [9]), 4 µg/mL (≈ 4.27 µM); in assay [4] (setting [9]) it was 0.5 µg/mL (≈ 0.534 µM); in assay [5] (setting [9]) it was 0.06 µg/mL (≈ 0.064 µM).
As to `CC[C@H]1OC(=O)[C@H](C)[C@@H](OC(=O)Cc2cccnc2)[C@H](C)[C@@H](O[C@@H]2O[C@H](C)C[C@H](N(C)C)[C@H]2O)[C@](C)(OC(=O)NC/C=C/c2cnc(C3CC3)nc2)C[C@@H](C)C(=O)[C@H](C)[C@H]2NC(=O)O[C@@]21C` [Compound 39], the MIC was found to be 16 µg/mL (≈ 17.4 µM) in assay [1] (setting [6]); 0.5 µg/mL (≈ 0.543 µM) in assay [2] (setting [7]); 2 µg/mL (≈ 2.17 µM) in assay [3] (setting [7]); 1 µg/mL (≈ 1.09 µM) in assay [4] (setting [7]); 0.06 µg/mL (≈ 0.0651 µM) in assay [5] (setting [7]).
Regarding `CC[C@H]1OC(=O)[C@H](C)[C@@H](OC(=O)Cc2cccnc2)[C@H](C)[C@@H](O[C@@H]2O[C@H](C)C[C@H](N(C)C)[C@H]2O)[C@](C)(OC(=O)NC/C=C/c2cnc(C(F)(F)F)nc2)C[C@@H](C)C(=O)[C@H](C)[C@H]2NC(=O)O[C@@]21C` [Compound 38], the MIC in assay [1] (setting [6]) was over 16 µg/mL; in assay [2] (setting [7]) it was 0.5 µg/mL (≈ 0.527 µM); in assay [3] (setting [7]) it was 4 µg/mL (≈ 4.21 µM); in assay [4] (setting [7]), 2 µg/mL (≈ 2.11 µM); in assay [5] (setting [7]), 0.12 µg/mL (≈ 0.126 µM).
As for `CC[C@H]1OC(=O)[C@H](C)[C@@H](OC(=O)Nc2ccc3ccccc3c2)[C@H](C)[C@@H](O[C@@H]2O[C@H](C)C[C@H](N(C)C)[C@H]2O)[C@](C)(OC(=O)NC/C=C/c2ccc(-c3ncccn3)cc2)C[C@@H](C)C(=O)[C@H](C)[C@H]2NC(=O)O[C@@]21C` [Compound 53], the MIC was over 16 µg/mL in assay [1] (setting [8]); 1 µg/mL (≈ 0.993 µM) in assay [2] (setting [9]); over 16 µg/mL in assay [3] (setting [9]); 2 µg/mL (≈ 1.99 µM) in assay [4] (setting [9]); 0.25 µg/mL (≈ 0.248 µM) in assay [5] (setting [9]).
Turning to `CC[C@H]1OC(=O)[C@H](C)[C@@H](OC(=O)Cc2cccnc2)[C@H](C)[C@@H](O[C@@H]2O[C@H](C)C[C@H](N(C)C)[C@H]2O)[C@](C)(OC(=O)NC/C=C/C=C/c2ccccn2)C[C@@H](C)C(=O)[C@H](C)[C@H]2NC(=O)O[C@@]21C` [Compound 27], the MIC in assay [1] (setting [6]) was found to be 8 µg/mL (≈ 8.83 µM); in assay [2] (setting [7]), 0.25 µg/mL (≈ 0.276 µM); in assay [3] (setting [7]) it was 1 µg/mL (≈ 1.1 µM); in assay [4] (setting [7]), 0.5 µg/mL (≈ 0.552 µM); in assay [5] (setting [7]), 0.03 µg/mL (≈ 0.0331 µM).
`CC[C@H]1OC(=O)[C@H](C)[C@@H](OC(=O)N2Cc3cccnc3C2)[C@H](C)[C@@H](O[C@@H]2O[C@H](C)C[C@H](N(C)C)[C@H]2O)[C@](C)(OC(=O)NC/C=C/c2ccc(-c3ncccn3)cc2)C[C@@H](C)C(=O)[C@H](C)[C@H]2NC(=O)O[C@@]21C` [Compound 67]: the MIC was over 16 µg/mL in assay [1] (setting [8]); 0.5 µg/mL (≈ 0.508 µM) in assay [2] (setting [9]); 8 µg/mL (≈ 8.13 µM) in assay [3] (setting [9]); 0.5 µg/mL (≈ 0.508 µM) in assay [4] (setting [9]); 0.06 µg/mL (≈ 0.061 µM) in assay [5] (setting [9]).
Take `CC[C@H]1OC(=O)[C@H](C)[C@@H](OC(=O)N2CCCCC2)[C@H](C)[C@@H](O[C@@H]2O[C@H](C)C[C@H](N(C)C)[C@H]2O)[C@](C)(OC(=O)NC/C=C/c2ccc(-c3ncccn3)cc2)C[C@@H](C)C(=O)[C@H](C)[C@H]2NC(=O)O[C@@]21C` [Compound 64]: the MIC in assay [1] (setting [8]) was over 16 µg/mL; in assay [2] (setting [9]) it was 0.5 µg/mL (≈ 0.527 µM); in assay [3] (setting [9]), 8 µg/mL (≈ 8.43 µM); in assay [4] (setting [9]), 1 µg/mL (≈ 1.05 µM); in assay [5] (setting [9]), 0.06 µg/mL (≈ 0.0632 µM).
Taken in the same sequence, the figures for `CC[C@H]1OC(=O)[C@H](C)[C@@H](OC(=O)NC2CCCCC2)[C@H](C)[C@@H](O[C@@H]2O[C@H](C)C[C@H](N(C)C)[C@H]2O)[C@](C)(OC(=O)NC/C=C/c2ccc(-c3ncccn3)cc2)C[C@@H](C)C(=O)[C@H](C)[C@H]2NC(=O)O[C@@]21C` [Compound 51] were over 16 µg/mL, 0.5 µg/mL (≈ 0.519 µM), 2 µg/mL (≈ 2.08 µM), 1 µg/mL (≈ 1.04 µM) and 0.12 µg/mL (≈ 0.125 µM).
